PubChem BioAssay (NCI)
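Test compounds were applied to cells in 96-well plates for 48 hours at 5 doses. At the TGI there is no net growth.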

How the values were obtained:
Assay in all cases: NCI tumour cell line growth inhibition, 48 h
[1] = test system: SF-268 CNS
[2] = test system: 786-0 renal
[3] = test system: CAKI-1 renal
[4] = test system: A498 renal
[5] = test system: A549 NSCLC
[6] = test system: SK-MEL-5 melanoma
[7] = test system: HL-60(TB) leukemia
[8] = test system: HS 578T breast
[9] = test system: SR leukemia
[10] = test system: U251 CNS
[11] = test system: HOP-92 NSCLC
[12] = test system: KM12 colon
[13] = test system: HCT-116 colon
[14] = test system: T-47D breast
[15] = test system: OVCAR-5 ovarian
[16] = test system: HOP-62 NSCLC
[17] = test system: DU-145 prostate
[18] = test system: MOLT-4 leukemia
[19] = test system: SNB-75 CNS
[20] = test system: LOX IMVI melanoma

Row | SMILES | TGI [1] [µM] | TGI [2] [µM] | TGI [3] [µM] | TGI [4] [µM] | TGI [5] [µM] | TGI [6] [µM] | TGI [7] [µM] | TGI [8] [µM] | TGI [9] [µM] | TGI [10] [µM] | TGI [11] [µM] | TGI [12] [µM] | TGI [13] [µM] | TGI [14] [µM] | TGI [15] [µM] | TGI [16] [µM] | TGI [17] [µM] | TGI [18] [µM] | TGI [19] [µM] | TGI [20] [µM]
1 | COc1cc2c(c(OC)c1OC)C(=O)[C@H](Br)[C@H]2NC(=O)NCCCl | > 100 | > 100 | > 100 | > 100 | > 100 | > 100 | > 100 | > 100 | > 100 | > 100 | > 100 | > 100 | > 100 | > 100 | > 100 | > 100 | > 100 | > 100 | > 100 | > 100
2 | CCCC(=O)OCC1OC(n2cc(F)c(=O)[nH]c2=O)C(F)C1OC(=O)CCC (stereo not given) | > 100 | > 100 | > 100 | > 100 | > 100 | > 100 | > 100 | > 100 | > 100 | > 100 | > 100 | > 100 | > 100 | > 100 | > 100 | > 100 | > 100 | > 100 | > 100 | > 100
3 | CN(/N=C\c1ccc2ccccc2c1)C1=NCCN1 | 84.1 | 47.4 | 27.4 | 28.6 | 36.3 | 28.6 | 33 | 47.5 | 56.6 | 56.5 | 9.02 | 32.8 | 31.8 | 75.9 | > 100 | 40.7 | > 100 | 40.9 | 41.5 | 25.4
